The subject of assay [1] is endotoxin-induced uveitis in female Lewis rats (neutrophil influx into ocular tissue). As to the kind of experiment: endotoxin-induced uveitis model, neutrophil influx (MPO activity) into the eye after topical administration. It counts as in vivo, rat (female Lewis). To be noted: for % Inhibition of Influx: topical 5 μl to each eye, 24 hours post endotoxin; for inhibition of neutrophil influx into the rat eye (in words): endotoxin induced uveitis, following topical administration. The method, then: The topical ophthalmic activity of representative compounds of the present invention, as compared with dexamethasone, is shown in Table 5 below. The compounds were evaluated in an endotoxin-induced uveitis model. This subacute model of ocular inflammation is characterized by the infiltration of neutrophils into the ocular tissue following administration of an endotoxin.
Ocular inflammation in female Lewis rats was initiated by hindpaw injection of 0.1 milliliters [ml] sterile saline (0.9% NaCl, weight:volume [w:v]) containing […] bacterial endotoxin (LPS; Escherichia coli 055:B5). Test compound or vehicle (carbopol/maxidex), 5 μl, was administered topically to each eye of the experimental animal 20 and 24 hours prior to endotoxin injection, immediately before endotoxin injection, and 4 and 20 hours after endotoxin injection. Twenty-four hours post endotoxin injection, animals were sacrificed by CO2 inhalation, and total ocular polymorphonuclear neutrophil (PMN) content was assessed indirectly by determination of myleoperoxide activity (MPO).
Ocular tissues were prepared for the quantification of neutrophil content as follows: Eyes were homogenized in 2.5 ml of ice-cold 50 mM phosphate/10mM N-ethylmaleimide buffer. The Brinkman homogenation probe was rinsed three (3) times with 2.5 ml of the same buffer and the probe washings were combined with the initial tissue homogenate. The homogenate was centrifuged for 30 minutes at 12,000×gravitational constant [g] at 4° C. The supernatant was discarded and the proteinaceous pellet was solubilized on 0.5 ml of ice-cold 0.5% hexadecyltrimethyl ammonium bromide (HTABr)/50 mM phosphate buffer (pH 6.0). The detergent-treated pellet homogenate was centrifuged at 4° C. for 30 minutes at 12,000×g and the supernatant collected and assayed for MPO activity in a buffer containing 50 mM phosphate/250 mM HTABr/250 μM hydrogen peroxide and 1.5 mM o-dianisidine (pH 6.0). o-Dianisidine oxidation was monitored spectrophotometrically at a wavelength of 460 nanometers [nm].

The target of assay [2] is T1, 5-lipoxygenase (Oryctolagus cuniculus, UniProt G1SNX0).
T1 construct: neutrophils isolated from rabbit peripheral blood; endogenous in cells; host or cells: neutrophils from peripheral blood of New Zealand Albino rabbits
T1 sequence (G1SNX0 1-674): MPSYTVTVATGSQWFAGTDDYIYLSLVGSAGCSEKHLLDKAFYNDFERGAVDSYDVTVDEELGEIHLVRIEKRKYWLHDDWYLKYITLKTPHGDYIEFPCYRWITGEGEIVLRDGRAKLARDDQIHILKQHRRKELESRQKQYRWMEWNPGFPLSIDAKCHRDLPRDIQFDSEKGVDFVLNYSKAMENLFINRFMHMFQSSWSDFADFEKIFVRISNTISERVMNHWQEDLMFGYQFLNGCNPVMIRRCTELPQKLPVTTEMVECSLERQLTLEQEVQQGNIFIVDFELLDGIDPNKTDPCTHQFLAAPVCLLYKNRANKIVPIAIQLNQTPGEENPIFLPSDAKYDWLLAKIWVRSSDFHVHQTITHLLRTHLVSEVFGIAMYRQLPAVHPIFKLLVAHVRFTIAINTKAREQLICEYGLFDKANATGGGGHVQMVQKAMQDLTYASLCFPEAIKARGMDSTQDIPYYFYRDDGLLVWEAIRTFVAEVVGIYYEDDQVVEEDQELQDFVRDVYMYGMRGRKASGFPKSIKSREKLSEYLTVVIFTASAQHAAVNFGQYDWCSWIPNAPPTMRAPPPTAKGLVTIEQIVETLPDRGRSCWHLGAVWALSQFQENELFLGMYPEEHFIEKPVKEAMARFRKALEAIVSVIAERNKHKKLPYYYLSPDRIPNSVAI
As to the kind of experiment: 5-lipoxygenase inhibition (5-HETE and LTB4 formation) in A23187-stimulated rabbit neutrophils. It counts as cell-based, rabbit (New Zealand Albino). To be noted: A23187 5.0 μM, arachidonic acid 52 μM, 3 minutes at 37° C. The method, then: The 5-lipoxygenase inhibitor activity was determined by measuring the inhibition of 5-HETE and LTB4 formation. The ability of a compound to suppress 5-HETE and LTB4 formation was investigated in calcium ionophore (A23187)-stimulated neutrophils isolated from rabbit peripheral blood. Neutrophils were isolated by standard procedures. Briefly, heparinized/calcium chelated blood was obtained from New Zealand Albino (NZA) rabbits by heart puncture. Red cells were removed at 4° C. by dextran sedimentation,as described in Blood, volume 11, 436 (1956). White cells, contained in the supernatant fraction, were sedimented by centrifugation and contaminating red cells removed by hypotonic lysis. The white cell pellet obtained, following red cell lysis and centrifugation, was resuspended in Dulbecco's PBS (Ca^2+ /Mg^2+ -free) and layered onto a 60% Histopaque-1083®/40% Histopaque-1119® cushion (Sigma Chemical, St. Louis, Mo., U.S.A.). The Histopaque® cushion was then centrifuged, and the resulting neutrophil pellet was washed and resuspended in 1/25 of the original blood volume. Aliquots of the cell suspension were pretreated for 5 minutes at 37° C. with carrier (DMSO) or test article dissolved in DMSO. CaCl2 was immediately added to the cell suspension and cells stimulated by addition of 5 microliters [μl] of a mixture containing [1-^14 C]-arachidonic acid and A23187 in DMSO. […]

Assay [3] is described as follows: phospholipid oxidation assay (conjugate diene formation in liposomes, Fe+3/EDTA and ascorbate). It counts as biochemical. The following applies: Fe+3/EDTA (167 μM) and ascorbate (167 μM), one hour. How it is done: Antioxidant activity was measured using a phospholipid oxidation assay. Liposomes were formed from dilineoleolylphosphocholine and the test compound. Free radical damage was induced by exposure to Fe^+3 /EDTA (167 micromolar [μM]) and ascorbate (167 μM). Oxidation was terminated after one hour by freezing in liquid nitrogen. Lyophilized samples were then dissolved in methanol or water. Oxidation was measured by conjugate diene formation, monitored using UV spectroscopy as described in Biochimica et Biophyica Acta, volume 1081, 181-187, (1991). The IC50 was calculated using the following non-linear regression algorithm: Y=A/[1+(B/X)^c ], wherein A=maximum, B=IC^50 and c=cooperativity or relative broadness of the curves. The minimum was assumed to be zero.

Assay [4] concerns bovine retinal pieces. Description: inhibition of lipid peroxide formation (TBARS) in bovine retinal pieces after hypoxia/reoxygenation. In kind it is cell-based. To be noted: hypoxia 1 hour, reoxygenated for 1 hour, agent added after 50 minutes of hypoxia. The method, then:
The cytoprotective effects of the compounds were measured using bovine retinal pieces. Retinal tissues were incubated in hypoxic media for 1 hour. After 50 minutes of hypoxia, test agents were added to the media to allow 10 minutes for the drug to diffuse into the tissue prior to reoxygenation. The vehicle by itself, was added to the non-drug group. Following the incubation period, tissue was reoxygenated for 1 hour. Lipid peroxidation was assessed by the formation of thiobarbituric acid reacting substances (TBARS). The tissues were homogenized and added to the trichloroacetic acid-thiobarbituric acid reagent and heated in the presence of BHT. The homogenate was filtered and the absorbance of the supernant was measured spectrophotometrically. A double derivative technique was used to calculate the concentration of TBARS present in each sample. Quantitation was based on a molar extinction coefficient of 1.56×10^5.

As for `C[C@@H]1C[C@H]2[C@@H]3CCC4=CC(=O)C=C[C@]4(C)[C@@]3(F)[C@@H](O)C[C@]2(C)[C@@]1(O)C(=O)CO` [Dexamethasone, reference compound], the “% Inhibition of Influx” value in assay [1] (concentration 0.1%) was determined as 93%.

Usually IC50 stands for the point on the concentration scale where inhibition reaches its midpoint. Lower therefore signals inhibition by little substance. In the case of `COc1ccc2cc(C(C)C(=O)OCCC3(C)CCc4c(C)c(O)c(C)c(C)c4O3)ccc2c1` (stereo not drawn) [Compound D, 2-(6-hydroxy-2,5,7,8-tetramethyl-3,4-dihydro-2H-benzo[1,2-b]pyran-2yl)ethyl 2-(6-methoxy-2-naphthyl)propionate], the IC50 in assay [2] came to 1000 nM; in assay [3] it was 2230 nM; in assay [4] (Bos taurus), 6 nM. The “% Inhibition of Influx” value in assay [1] (concentration 1.0%) is 40%. In addition, in assay [1], the “inhibition of neutrophil influx into the rat eye (in words)” value is recorded as “significantly inhibited neutrophil influx”.

Regarding Vitamin E [reference compound], the results for the IC50 in assay [3] and in assay [4] were 4420 nM and 5000 nM, respectively.

Consider `COc1ccc2cc(C(C)C(=O)OCC3(C)CCc4c(C)c(O)c(C)c(C)c4O3)ccc2c1` (stereo not drawn) [Compound B, 2-(6-hydroxy-2,5,7,8-tetramethyl-3,4-dihydro-2H-benzo[1,2-b]pyran-2-yl)methyl 2-(6-methoxy-2-naphthyl)propionate], for which 1160 nM corresponded to half-maximal inhibition in assay [3] (IC50).

`COc1ccc2cc(C(C)C(=O)OCC3(C)Cc4c(C)c(O)c(C)c(C)c4O3)ccc2c1` (stereo not drawn) [Compound E, 2-(5-hydroxy-2,4,6,7-tetramethyl-2,3-dihydro-benzo[1,2-b]furan-2-yl)methyl2-(6-methoxy-2-naphthyl)propionate] had a concentration for half-maximal inhibition (IC50) in assay [4] (Bos taurus) of 10 nM.

Consider `COc1ccc2cc(C(C)C(=O)OCCC3(C)Cc4c(C)c(O)c(C)c(C)c4O3)ccc2c1` (stereo not drawn) [Compound F, 2-(5-hydroxy-2,4,6,7-tetramethyl-2,3-dihydro-benzo[1,2-b]furan-2-yl)ethyl 2-(6-methoxy-2-naphthyl)propionate], for which, in assay [3], the IC50 came to 2550 nM.

Regarding `COc1ccc2cc(C(C)C(=O)N(C)CC(O)c3ccc(O)c(O)c3)ccc2c1` (stereo not drawn) [Compound A, N-(2-(3,4-dihydroxyphenyl)-2-hydroxyethyl)-N-methyl 2-(6-methoxy-2-naphthyl)propionamide], the concentration for half-maximal inhibition (IC50) in assay [2] came out at 4000 nM; in assay [4] (Bos taurus) it was 150 nM. Besides, in assay [1] (concentration 0.1%), the “% Inhibition of Influx” value was determined as 40%. Further, the “inhibition of neutrophil influx into the rat eye (in words)” value in assay [1] is “significantly inhibited neutrophil influx”.

The values above are taken from patent US5607966A, “Esters and amides of non-steroidal anti-inflammatory carboxylic acids which may be used as anti-oxidants, 5-lipoxygenase inhibitors and non-steroidal anti-inflammatory prodrugs” (Alcon Laboratories, Inc., priority 1994, dated 1997).
